Measurements published in ChEMBL document CHEMBL6109144, “Discovery of New Difluorocyclobutyl Derivatives as Effective Glucagon-Like Peptide-1 Receptor Agonists with Reduced hERG Inhibitory Activities” (J Med Chem, 2025).
pEC50: −log10 of the molar value. Active and inactive are the calls of the source. No cut-off for these calls is given here.

Tests used:
[1] = biological target: T1, Glucagon-like peptide 1 receptor (Homo sapiens, UniProt P43220); assay: Agonist activity at N-terminal hemagglutinin-tagged human GLP-1R expressed in CHO cells co-transfected with pcDNA3.0 assessed as increase in intracellular cAMP accumulation incubated for 30 mins by microplate reader analysis; format: functional, cell-based
T1 sequence (P43220 whole entry): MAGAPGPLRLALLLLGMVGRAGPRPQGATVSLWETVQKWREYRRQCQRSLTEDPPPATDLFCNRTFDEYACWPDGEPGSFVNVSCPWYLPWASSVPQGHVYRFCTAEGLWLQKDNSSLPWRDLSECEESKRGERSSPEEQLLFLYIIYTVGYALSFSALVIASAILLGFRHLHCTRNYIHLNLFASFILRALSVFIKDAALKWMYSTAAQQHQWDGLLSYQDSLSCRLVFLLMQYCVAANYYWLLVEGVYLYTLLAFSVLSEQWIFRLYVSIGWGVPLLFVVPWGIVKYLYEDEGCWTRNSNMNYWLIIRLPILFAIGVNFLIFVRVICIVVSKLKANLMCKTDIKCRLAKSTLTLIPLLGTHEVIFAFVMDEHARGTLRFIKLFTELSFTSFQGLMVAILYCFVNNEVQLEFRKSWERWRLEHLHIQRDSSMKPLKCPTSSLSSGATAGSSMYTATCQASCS

hERG (KCNH2) [2] = biological target: T2, hERG (KCNH2) (Homo sapiens, UniProt Q12809); assay: Inhibition of hERG at 10 uM at -80 mV holding potential by whole-cell patch clamp analysis relative to control; format: toxicity
T2 sequence (Q12809 whole entry): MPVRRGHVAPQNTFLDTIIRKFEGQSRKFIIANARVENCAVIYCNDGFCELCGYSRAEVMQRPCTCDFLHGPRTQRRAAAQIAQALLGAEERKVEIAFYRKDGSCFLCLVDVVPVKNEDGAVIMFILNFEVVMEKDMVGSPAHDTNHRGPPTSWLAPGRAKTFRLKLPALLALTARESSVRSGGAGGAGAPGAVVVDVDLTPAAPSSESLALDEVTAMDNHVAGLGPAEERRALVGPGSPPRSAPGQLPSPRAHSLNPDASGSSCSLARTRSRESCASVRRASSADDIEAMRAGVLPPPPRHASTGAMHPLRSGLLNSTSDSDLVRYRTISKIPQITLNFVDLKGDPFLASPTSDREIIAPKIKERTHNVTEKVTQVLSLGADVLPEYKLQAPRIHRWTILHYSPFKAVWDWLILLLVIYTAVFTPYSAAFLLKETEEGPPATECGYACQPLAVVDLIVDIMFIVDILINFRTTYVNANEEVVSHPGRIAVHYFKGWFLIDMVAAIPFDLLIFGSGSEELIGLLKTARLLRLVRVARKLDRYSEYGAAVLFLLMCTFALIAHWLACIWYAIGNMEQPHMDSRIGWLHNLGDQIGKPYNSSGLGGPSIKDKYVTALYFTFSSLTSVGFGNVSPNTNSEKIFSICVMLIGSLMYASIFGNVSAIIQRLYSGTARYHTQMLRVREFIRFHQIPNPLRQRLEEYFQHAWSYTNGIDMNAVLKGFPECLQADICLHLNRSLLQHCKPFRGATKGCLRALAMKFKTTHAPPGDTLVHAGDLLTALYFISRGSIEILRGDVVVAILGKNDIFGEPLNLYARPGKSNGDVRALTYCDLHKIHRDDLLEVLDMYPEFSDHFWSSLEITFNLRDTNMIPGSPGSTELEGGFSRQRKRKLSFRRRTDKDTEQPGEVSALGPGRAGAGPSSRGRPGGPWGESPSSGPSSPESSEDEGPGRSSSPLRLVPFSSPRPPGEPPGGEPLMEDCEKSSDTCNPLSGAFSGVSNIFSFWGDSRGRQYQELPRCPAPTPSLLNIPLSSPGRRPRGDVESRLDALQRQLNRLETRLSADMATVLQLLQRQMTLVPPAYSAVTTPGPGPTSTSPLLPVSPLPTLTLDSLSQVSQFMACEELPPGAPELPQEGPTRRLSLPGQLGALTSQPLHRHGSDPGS

[3] = Half life in Sprague-Dawley rat at 5 mg/kg, po measured up to 24 hrs by LC-MS/MS analysis; format: ADME, organism-based; settings: in vivo
[4] = Cmax in Sprague-Dawley rat at 5 mg/kg, po measured up to 24 hrs by LC-MS/MS analysis; format: ADME, organism-based; settings: in vivo
[5] = AUC (0 to infinity) in Sprague-Dawley rat at 5 mg/kg, po measured up to 24 hrs by LC-MS/MS analysis; format: ADME, organism-based; settings: in vivo
[6] = Observed apparent oral clearance in Sprague-Dawley rat at 5 mg/kg, po measured up to 24 hrs by LC-MS/MS analysis; format: ADME, organism-based; settings: in vivo
[7] = Fraction of the dose absorbed in Sprague-Dawley rat at 5 mg/kg, po measured up to 24 hrs by LC-MS/MS analysis; format: ADME, organism-based; settings: in vivo, read-out: Fabs
[8] = biological target: T1, Glucagon-like peptide 1 receptor; assay: Binding affinity to GLP-1R (unknown origin) at 500 nM measured at 30 to 120 mins by HTRF analysis relative to control; settings: time 30-120 min
[9] = biological target: T1, Glucagon-like peptide 1 receptor; assay: Binding affinity to GLP-1R (unknown origin) at 5000 nM measured at 30 to 120 mins by HTRF analysis relative to control; settings: filed as agonist, time 30-120 min
in vivo = settings: Sprague-Dawley, rat, po, 5 mg/kg
hERG (KCNH2) [10] = biological target: T2, hERG (KCNH2); assay: Inhibition of hERG at 1 uM at -80 mV holding potential by whole-cell patch clamp analysis relative to control; format: toxicity
Rattus norvegicus [11] = assay: Antidiabetic activity in human GLP-1R knockin Sprague-Dawley rat model assessed as increase in rate of glucose disappearance at 10 mg/kg, po pretreated with compound for 15 mins by IPGTT analysis; format: functional, organism-based
Rattus norvegicus [12] = assay: Antidiabetic activity in human GLP-1R knockin Sprague-Dawley rat model assessed as increase in rate of insulin secretion at 10 mg/kg, po pretreated with compound for 15 mins by IPGTT analysis; format: functional, organism-based
[13] = biological target: T1, Glucagon-like peptide 1 receptor; assay: Agonist activity at human GLP-1R expressed in HEK293 cells assessed as beta-arrestin2 recruitment incubated for 5 mins by bioluminescence based Envision multiplate reader analysis; format: functional, cell-based
[14] = biological target: T1, Glucagon-like peptide 1 receptor; assay: Agonist activity at human GLP-1R expressed in HEK293 cells assessed as beta-arrestin1 recruitment incubated for 5 mins by bioluminescence based Envision multiplate reader analysis; format: functional, cell-based
[15] = biological target: T3, Glucagon-like peptide 2 receptor (Homo sapiens, UniProt O95838); assay: Agonist activity at N-terminal HA-tagged human GLP-2R expressed in CHO cells co-transfected with pcDNA3.0 assessed as effect on cAMP accumulation incubated for 30 mins by microplate reader analysis; format: functional, cell-based
T3 sequence (O95838 whole entry): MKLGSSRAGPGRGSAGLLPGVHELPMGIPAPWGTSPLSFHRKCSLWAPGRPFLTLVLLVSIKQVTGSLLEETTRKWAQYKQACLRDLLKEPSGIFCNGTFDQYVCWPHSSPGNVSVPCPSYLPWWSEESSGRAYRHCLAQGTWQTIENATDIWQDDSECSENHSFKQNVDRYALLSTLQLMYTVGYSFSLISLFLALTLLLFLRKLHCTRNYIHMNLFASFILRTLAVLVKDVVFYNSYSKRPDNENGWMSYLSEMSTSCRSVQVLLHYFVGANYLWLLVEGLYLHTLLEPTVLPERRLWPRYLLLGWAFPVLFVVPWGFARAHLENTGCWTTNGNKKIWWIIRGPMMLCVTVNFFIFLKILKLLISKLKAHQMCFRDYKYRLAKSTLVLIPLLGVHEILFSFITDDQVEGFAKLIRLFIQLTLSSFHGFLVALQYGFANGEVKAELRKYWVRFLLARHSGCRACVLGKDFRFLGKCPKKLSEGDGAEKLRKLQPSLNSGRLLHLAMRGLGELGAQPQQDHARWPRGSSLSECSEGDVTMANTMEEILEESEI

[16] = biological target: T4, Gastric inhibitory polypeptide receptor (Homo sapiens, UniProt P48546); assay: Agonist activity at N-terminal HA-tagged human GIPR expressed in CHO cells co-transfected with pcDNA3.0 assessed as effect on cAMP accumulation incubated for 30 mins by microplate reader analysis; format: functional, cell-based
T4 sequence (P48546 whole entry): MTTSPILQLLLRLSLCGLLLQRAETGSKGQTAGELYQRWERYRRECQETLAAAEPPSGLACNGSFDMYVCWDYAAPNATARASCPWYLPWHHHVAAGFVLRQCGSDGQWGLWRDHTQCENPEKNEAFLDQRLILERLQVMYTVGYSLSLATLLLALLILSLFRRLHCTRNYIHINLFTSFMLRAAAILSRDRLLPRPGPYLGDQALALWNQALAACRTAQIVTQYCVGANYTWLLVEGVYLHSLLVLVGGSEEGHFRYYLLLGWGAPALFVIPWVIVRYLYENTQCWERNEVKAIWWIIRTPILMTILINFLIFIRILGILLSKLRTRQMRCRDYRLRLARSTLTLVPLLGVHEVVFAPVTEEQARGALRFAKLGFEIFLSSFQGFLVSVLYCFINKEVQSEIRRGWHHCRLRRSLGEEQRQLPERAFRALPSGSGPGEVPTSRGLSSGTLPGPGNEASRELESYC

Glucagon receptor = Glucagon receptor (Homo sapiens, UniProt P47871); assay: Agonist activity at N-terminal HA-tagged human GCGR expressed in CHO cells co-transfected with pcDNA3.0 assessed as effect on cAMP accumulation incubated for 30 mins by microplate reader analysis; format: functional, cell-based
Chain of Glucagon receptor (P47871 whole entry): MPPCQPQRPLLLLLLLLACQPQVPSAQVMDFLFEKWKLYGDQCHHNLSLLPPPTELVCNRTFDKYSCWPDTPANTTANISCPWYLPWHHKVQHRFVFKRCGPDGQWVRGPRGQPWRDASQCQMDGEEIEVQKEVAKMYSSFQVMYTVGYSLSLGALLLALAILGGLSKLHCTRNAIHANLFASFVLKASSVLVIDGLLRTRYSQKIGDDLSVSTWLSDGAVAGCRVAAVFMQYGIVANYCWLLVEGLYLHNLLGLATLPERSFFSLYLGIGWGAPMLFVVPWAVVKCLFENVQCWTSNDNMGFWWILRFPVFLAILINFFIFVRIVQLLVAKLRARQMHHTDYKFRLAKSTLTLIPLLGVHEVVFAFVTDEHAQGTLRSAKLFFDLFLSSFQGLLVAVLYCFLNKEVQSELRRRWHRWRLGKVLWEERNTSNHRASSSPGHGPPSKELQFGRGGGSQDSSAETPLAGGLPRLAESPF

[17] = Induction of insulin release in human EndoC-betaH5 cells incubated for 1 hr by ELISA analysis; format: functional, cell-based; settings: EndoC-betaH5, 1 h
Rattus norvegicus [18] = assay: Antidiabetic activity in human GLP-1R knockin Sprague-Dawley rat model assessed as increase in rate of glucose disappearance at 1 to 10 mg/kg, po pretreated with compound for 15 mins by IPGTT analysis; format: functional, organism-based; settings: dose 1-10 mg/kg
Rattus norvegicus [19] = assay: Antidiabetic activity in human GLP-1R knockin Sprague-Dawley rat model assessed as increase in rate of insulin secretion at 1 to 10 mg/kg, po pretreated with compound for 15 mins by IPGTT analysis; format: functional, organism-based; settings: dose 1-10 mg/kg
Rattus norvegicus [20] = assay: Antidiabetic activity in human GLP-1R knockin po dosed Sprague-Dawley rat model assessed as increase in glucose-simulated insulin secretion pretreated with compound for 15 mins followed by D-glucose administration and measured after 30 mins by ELISA analysis; format: functional, organism-based; settings: dose 1-10 mg/kg, time 45.0 min

| Structure (SMILES) | pEC50 [1] | half-life [3] | Cmax [4] | AUC(0-inf) [5] | CL/F [6] | Fa at 24 h [7] | Activity ([8]; filed as agonist) | Activity [9] | Tmax at 24 h (in vivo) | inhibition at 10 µM (hERG (KCNH2) [2]) | inhibition at 1 µM (hERG (KCNH2) [10]) | other results |
| --- | --- | --- | --- | --- | --- | --- | --- | --- | --- | --- | --- | --- |
| COc1cc(C(=O)O)cc2c1nc(CN1CC=C(c3cccc(OCc4ccc(C5CC(F)(F)C5)cc4F)n3)CC1)n2C[C@@H]1CCO1 | 10.92 | 145 min | 31.5 ng/mL | 84 ng·h/mL | 1040 mL/min/kg | 2.43% | 69.4% | 92.3% | 55.2 min | 68.3% |  |  |
| N#Cc1ccc(COc2cccc(C3CCN(Cc4nc5ccc(C(=O)O)cc5n4C[C@@H]4CCO4)CC3)n2)c(F)c1 [DANUGLIPRON] |  | 217 min | 130 ng/mL | 655 ng·h/mL | 135 mL/min/kg | 35.1% | 44.9% | 81.9% | 79.8 min | 69.7% | 8.4% | Activity (Rattus norvegicus [11]): Active; Activity (Rattus norvegicus [12]): Active |
| O=C(O)c1ccc2nc(CN3CCC(Oc4cccc(Cc5ccc(Cl)c6c5OCC6)n4)CC3)n(C[C@@H]3CCO3)c2n1 | 10.33 | 630 min | 24.1 ng/mL | 182 ng·h/mL | 458 mL/min/kg | 28.5% |  |  | 40.2 min | 5.1% | 0.7% |  |
| O=C(O)c1ccc2nc(Cc3ccc(-c4cccc(OCc5ccc(C6CC(F)(F)C6)cc5F)n4)cc3F)n(C[C@@H]3CCO3)c2c1 | 10.51 | 131 min | 33.6 ng/mL | 91 ng·h/mL | 963 mL/min/kg | 2.86% |  |  | 79.8 min | 4.76% | 0.58% |  |
| O=C(O)c1ccc2nc(CN3CCC(Oc4cccc(COc5ccc6cnn(CC(F)F)c6c5)n4)CC3)n(C[C@@H]3CCO3)c2n1 | 10.07 | 256 min | 133 ng/mL | 149 ng·h/mL | 601 mL/min/kg | 10.8% |  |  | 21.6 min | 2.69% | -0.55% |  |
| O=C(O)c1ccc2nc(CN3CC=C(c4cccc(OCc5ccc(C6CC(F)(F)C6)cc5F)n4)CC3)n(C[C@@H]3CCO3)c2c1 | 10.23 | 401 min | 22 ng/mL | 67 ng·h/mL | 1230 mL/min/kg | 3.63% | 57.9% | 88.9% | 25.2 min | 74% | 4.53% |  |
| O=C(O)c1ccc2nc(CN3CCC(Oc4cccc(COc5ccc6cnn(CC(F)F)c6c5F)n4)CC3)n(C[C@@H]3CCO3)c2n1 | 10.07 | 177 min | 38.3 ng/mL | 31.4 ng·h/mL | 2210 mL/min/kg | 2.2% |  |  | 11.4 min | 14.2% | 5.1% |  |
| O=C(O)c1ccc2nc(Cc3ccc(-c4cccc(OCc5ccc(C6CC(F)(F)C6)cc5F)n4)cc3)n(C[C@@H]3CCO3)c2c1 | 10.03 |  |  |  |  |  |  | 73.5% |  |  |  | Activity [8]: 29.5% |

Continued by rising pEC50 [1], values first:

| pEC50 [1] | half-life [3] | Cmax [4] | AUC(0-inf) [5] | CL/F [6] | Fa at 24 h [7] | Activity ([8]; filed as agonist) | Activity [9] | Tmax at 24 h (in vivo) | Structure (SMILES) | inhibition at 10 µM (hERG (KCNH2) [2]) | inhibition at 1 µM (hERG (KCNH2) [10]) | other results |
| --- | --- | --- | --- | --- | --- | --- | --- | --- | --- | --- | --- | --- |
| 10.09 |  |  |  |  |  |  | 66.6% |  | O=C(O)c1ccc2nc(CN3CCN(c4cccc(OCc5ccc(C6CC(F)(F)C6)cc5F)n4)CC3)n(C[C@@H]3CCO3)c2c1 |  |  | Activity [8]: 19.9% |
| 10.32 | 199 min | 256 ng/mL | 1380 ng·h/mL | 65.8 mL/min/kg | 54.2% |  | 71.2% | 160 min | O=C(O)c1ccc2nc(CN3CC=C(c4cccc(OCc5ccc(C6CC(F)(F)C6)cc5F)n4)CC3)n(C[C@@H]3CCO3)c2n1 | 37.6% | 0.6% | Activity [8]: 35.5%; pEC50 [13]: 6.06; pEC50 [14]: 5.69; pEC50 [15]: < 4.70; pEC50 [16]: < 4.70; pEC50 (Glucagon receptor): < 4.70; pEC50 [17]: 7.64; Activity (Rattus norvegicus [18]): Active; Activity (Rattus norvegicus [19]): Active; Activity (Rattus norvegicus [20]): Dose-dependent-effect |
| 10.80 |  |  |  |  |  | 45.4% | 82.2% |  | O=C(O)c1cc(F)c2nc(CN3CC=C(c4cccc(OCc5ccc(C6CC(F)(F)C6)cc5F)n4)CC3)n(C[C@@H]3CCO3)c2c1 | 58.7% |  |  |
